Tests used:
RBCs = assay: Deformability cytometer: velocity/passage of glutaraldehyde-treated RBCs through constriction channels; assay type: cell-based, human
Method: FIG. 5B depicts the results of an experiment evaluating the velocity at different glutaraldehyde concentrations of RBCs moving through the two pore geometries. RBCs were treated with the indicated concentrations of glutaraldehyde for 30 minutes in PBS and then washed 3 times. The pressure difference/length was approximately 0.61 Pa/μm.
PBS was mixed with 0.2% w/v Pluronic F-108 (BASF, Mount Olive, N.J.) and 1% w/v Bovine Serum Albumin (BSA) (Sigma-Aldrich, St. Louis, Mo.) as a stock solution to prevent RBC adhesion to the device walls. For the fluorescent bead experiments, 200 nm FluoSpheres europium luminescent microspheres (Molecular Probes, Eugene, Oreg.) diluted to a final concentration of 1.25×10^−5 percent solids were used.
In experiments involving blood, 1 μl of whole blood (−50% hematocrit) was diluted in 100 μl of the PBS-pluronic-BSA solution for all of the experiments. In experiments involving parasites that express GFP, no further treatment was performed. In experiments involving healthy RBCs, 1 μl of whole blood (Research Blood Components, Brighton, Mass.), 1 μl of 50 μg/ml of Cell Tracker Orange (Invitrogen, Carlsbad, Calif.), and 98 μl of PBS were mixed with the indicated concentration of glutaraldehyde and allowed to sit for 30 minutes. The sample was then washed 3 times with the PBS-Pluronic-BSA solution. In experiments involving reticulocytes, 1 μl of whole blood, 89 μl of the PBS-Pluronic-BSA solution, and 10 μl of 1×10^−6M thiazole orange were mixed and allowed to sit for 20 minutes before starting experiments. Videos were obtained in which reticulocytes appear as uniformly fluorescent cells under the GFP filter set, while mature RBCs appear as shadows.
The PBS-Pluronic-BSA solution was pumped through the device for 30 minutes to coat the device walls with Pluronic and BSA. The RBC-PBS-Pluronic-BSA suspension was then injected into the device. Differences in pressure between the two reservoirs were generated hydrostatically by a difference in water column height. […]

[1] = system: P. falciparum-infected RBCs (iRBCs) and co-cultured uninfected RBCs (uRBCs); assay: Microfluidic deformability (cell mobility) of RBCs after artesunate drug treatment; assay type: cell-based, human; conditions: for separation resolution between iRBCs and uRBCs: after artesunate drug treatment; for effect on RBC deformability (cell mobility): artesunate 0.01 to 0.1 μg/ml, 2, 4 and 6 hours
Method: FIG. 60 provides cell mobility plots for both infected cells (shown by diamond symbols) and co-cultured uninfected cells (shown by circle symbols) with and without Artesunate drug treatment. The drug effect was traced at 2, 4 and 6 hours after drug treatment. Measurements were done at physiologically relevant dosage from 0.01 to 0.1 μg/ml.
The deformability of both iRBCs and uRBCs were measured at 2, 4 and 6 hours after artesunate drug treatment (FIG. 60). A synchronized culture of rings with ˜15% parasitemia was resuspended at 0.1% hematocrit in malaria culture medium containing 0.01, 0.05 or 0.1 μg/ml of artesunate.
P. falciparum 3D7A parasites (from Malaria Research and Reference Reagent Source, American Type Culture Collection) were cultured in leukocyte-free human RBCs (Research Blood Components, Brighton Mass.) in RPMI 1640 complete medium as described (Trager and Jensen J. parasitol. 2005). Parasites cultures were synchronized by sorbitol lysis (Lambros, C 1979 J. parasitol.) two hours after merozoite invasion.
1× Phosphate buffered saline (PBS) was mixed with 1% w/v Bovine Serum Albumin (BSA) (Sigma-Aldrich, St. Louis, Mo.) as a stock solution and was fresh made on every experimental day. For experiments tracking fluid flow velocity, 200 nm FluoSpheres europium luminescent microspheres (Molecular Probes, Eugene, Oreg.) were used at a final concentration of 5.0×10^−4 percent solids. For experiments involving only healthy RBCs, fresh whole blood (Research Blood Components, Brighton, Mass.) was used at 100 times dilution (i.e. 1 μl whole blood with 99 μl stock solution). For experiments involving parasitized cells, 1 ml of cultured cells were spun down at 1,000 rpm for 5 minute; 1 μl of the pellet was then aliquot to 200 μl stock solution.
10 μl of 1×10^−6M thiazole orange Orange (Invitrogen, Carlsbad, Calif.), which stains the RNA of the cell, was added to the aforementioned 200 μl iRBC solution 20 minutes before the experiment. The infected cells would appear fluorescent under the GFP filter set whereas the uninfected cells were seen as dark shadows.
To control the ambient temperature, the microscope surface was replaced by a heating chamber (Olympus), which was preheated to a desired temperature range (i.e. 30-40° C.) for 30 minutes before the beginning of every experiment. Meanwhile, the PBS-BSA stock solution was injected into the device to coat the PDMS walls to prevent adhesion. This filling step need not be done inside the heating chamber, but the PBS-BSA filled device needed to be placed into the heating chamber at least 5 minutes before loading 10 μL of diluted blood sample. During temperature calibration phase, a thermal meter was used to probe the exact temperature inside the heating chamber. When the temperature needed to be adjusted to a different value, at least 5 minutes of waiting time was required to ensure a new stable ambient temperature.
To apply a constant pressure gradient across the device, the pressure difference between inlet and outlet reservoir was generated hydrostatically by fixing the difference between inlet and outlet water column height (FIG. 55A).
To capture the movement of RBCs inside the microchannels, a CCD camera (Hamamatsu Photonics, C4742-80-12AG, Japan) was connected to the inverted fluorescent microscope (Olympus IX71, Center Valley, Pa.). Images were automatically acquired by IPLab (Scanalytics, Rockville, Md.) at 100 ms time interval and the post-imaging analysis was done using imageJ. The mobility of individual RBCs was defined as the distance the cells moved divide by the time in seconds.

WAS−/− T cells = assay: In vitro Transwell cell migration toward CCL19; assay type: cell-based, mouse; conditions: after seven hours of exposure to CCL19 (100 ng/mL), 5-μm pore Transwell
Method: Cells from the peripheral lymph nodes and the spleen of Balb/c mice and WAS−/− mice on Balb/c background were pooled and enriched using the EasySep Mouse CD8+ T Cell Enrichment Kit from STEMCELL Technologies (British Columbia, Canada). Enrichment was confirmed using fluorescence-activated cell sorting (FACS) by staining the cells with FITC/anti-Thy1.2 and PE/anti-CD8α antibodies (Abs). The memory T cell population was assessed by evaluating the expression of CD44 and CD62L via FACS. T cells in an activation medium with 100 units/mL IL-2 and 1% anti-CD28 Ab were activated by plate-bound anti-CD3 Abs for 4 day at 37° C. The activation medium included RPMI with 10% FBS, 10 mM HEPES (1M), 1% NEAA, 1% sodium pyruvate (100 mM), 50 μM (β-mercaptoethanol, 4 mM L-glutamine, and 100 μg/mL Pen/Strep. Cell activation was verified via FACS measurement of CD25. Enriched WT and WAS−/− T cells in DMEM with 1% BSA and 0.1% Pen/Strep were induced to migrate through polycarbonate Transwell inserts (Costar, Cambridge, Mass.) with 5-μm pores in a 24-well plate toward a CCL19 chemokine source (R&D Systems, Minneapolis, Minn.). Inserts contained 5×10^5 cells in 100 μL of medium, and wells contained 1 mL of medium with either no CCL19 or 100 ng/mL of CCL19. Cells were allowed to migrate for ˜7 hours at 37° C., and those that crossed the membrane were collected and used for MPA studies.

WT T cells [2] = assay: Micropipette aspiration of CCL19-stimulated migratory T cells; assay type: cell-based, mouse
Method: Enriched WT and WAS−/− T cells in DMEM with 1% BSA and 0.1% Pen/Strep were induced to migrate through polycarbonate Transwell inserts (Costar, Cambridge, Mass.) with 5-μm pores in a 24-well plate toward a CCL19 chemokine source (R&D Systems, Minneapolis, Minn.). Inserts contained 5×10^5 cells in 100 μL of medium, and wells contained 1 mL of medium with either no CCL19 or 100 ng/mL of CCL19. Cells were allowed to migrate for ˜7 hours at 37° C., and those that crossed the membrane were collected and used for MPA studies.
3×10^5 cells in 100 μL RPMI with 10% FBS and 1% HEPES was stained with 10 μL trypan blue. The mixture was added to 600 μL of either the RPMI medium or the T cell activation medium with IL-2 for naïve and activated T cell testing. Migratory T cells were tested in the medium used for migration. The MPA device was based on the design of Hochmuth et al (18). The aspiration rate and volume were 36 mL/hr and 2 mL, corresponding to a total pressure of ˜400 Pa. The cell movement in the micropipette was recorded with a CCD camera. Aspirations were performed at approximately room temperature.
MPA data were fitting using the half-space model (77) described by the expressions: […]

WT T cells [3] = assay: FACS analysis of phenotype of T cells induced to migrate by CCL19; assay type: cell-based, mouse; conditions: after CCL19 exposure (100 ng/mL) for seven hours
Method: FIG. 68 depicts results of a FACS analysis of phenotype of naïve WT T cells induced to migrate by the chemokine CCL19. T cells were first gated on PI to exclude dead cells. The cell samples tested were naïve T cells not exposed to CCL 19 (A, D), cells that remained in the insert after CCL19 exposure (100 ng/mL) for seven hours (B, E), and cells that migrated across the insert membrane after the same chemokine treatment (C, F).
Cells from the peripheral lymph nodes and the spleen of Balb/c mice and WAS−/− mice on Balb/c background were pooled and enriched using the EasySep Mouse CD8+ T Cell Enrichment Kit from STEMCELL Technologies (British Columbia, Canada). Enrichment was confirmed using fluorescence-activated cell sorting (FACS) by staining the cells with FITC/anti-Thy1.2 and PE/anti-CD8α antibodies (Abs). The memory T cell population was assessed by evaluating the expression of CD44 and CD62L via FACS. T cells in an activation medium with 100 units/mL IL-2 and 1% anti-CD28 Ab were activated by plate-bound anti-CD3 Abs for 4 day at 37° C. The activation medium included RPMI with 10% FBS, 10 mM HEPES (1M), 1% NEAA, 1% sodium pyruvate (100 mM), 50 μM (β-mercaptoethanol, 4 mM L-glutamine, and 100 μg/mL Pen/Strep. Cell activation was verified via FACS measurement of CD25.

O=CCCCC=O [glutaraldehyde]
RBC stiffness / velocity with increasing glutaraldehyde concentration (RBCs; 30 minutes treatment in PBS, approximately 0.61 Pa/μm): progressively stiffer with decreasing velocity | RBC passage at high glutaraldehyde concentration (RBCs; glutaraldehyde concentrations greater than 0.003%): most RBCs were held up at the entrance to the channel | RBCs passed through the channels (RBCs; glutaraldehyde concentrations less than 0.002%, treatment for 30 minutes): more than 95%

C[C@H]1[C@H](OC(=O)CCC(=O)O)O[C@@H]2O[C@@]3(C)CC[C@H]4[C@H](C)CC[C@@H]1[C@@]24OO3 [artesunate]
mobility decrease ([1]; 2 and 4 hours after artesunate treatment): smaller and less pronounced mobility decrease | mobility decrease ([1]; 6 hours after artesunate treatment, 0.01, 0.05 or 0.1 μg/ml): 30%-50% | separation resolution between iRBCs and uRBCs [1]: almost doubled | separation resolution between iRBCs and uRBCs ([1]; listed as Artesunate): doubled | effect on RBC deformability (cell mobility) [1]: stiffening effect on both iRBCs and uRBCs | effect on RBC deformability (cell mobility) ([1]; listed as Artesunate): significant decrease in cell mobility

B1: CCL19: chemokine (R&D Systems) used as chemoattractant for T cells (protein, UniProt Q99731 22-98, looked up)
C-C motif chemokine 19: GTNDAEDCCLSVTQKPIPGYIVRNFHYLLIKDGCRVPAVVFTTLRGRQLCAPPDQPWVERIIQRLQRTSAKMKRRSS
cells migrated (WAS−/− T cells): ~6.4% | reduction of modulus from the value measured in the absence of CCL19 (WT T cells [2]): more than 2 times | migrating cells stained CD62L high and CD44 low (naive phenotype) (WT T cells [3]): ~90%

Reference: US20110289043A1, “COMPUTATIONAL METHODS AND COMPOSITIONS” (Brown University Research Foundation, priority 2010, published 2011)
